Counter-ions that a name gives are not always drawn.
Key:
EGFR WT = EGFR WT (Homo sapiens (Human), UniProt P00533); experiment: ErbB enzyme assay (CisBio HTRF-KinEASE-TK), EGFR WT; format: biochemical; details: ATP at Km (25 μM), 1 h incubation
Outline: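 Compounds, serially diluted three-fold, were incubated with enzyme for 1 h at ambient temperature. Detection reagents were then added for a further hour, and the 655/620 nm HTRF ratio was normalised to uninhibited and pre-quenched controls. IC50 was fitted with a four-parameter logistic model.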

ErbB2 V777L = ErbB2 V777L (Homo sapiens (Human), UniProt P04626, V777L); experiment: ErbB enzyme assay (CisBio HTRF-KinEASE-TK), ErbB2 V777L; format: biochemical
Chain of ErbB2 V777L (P04626 23-1255 V777L): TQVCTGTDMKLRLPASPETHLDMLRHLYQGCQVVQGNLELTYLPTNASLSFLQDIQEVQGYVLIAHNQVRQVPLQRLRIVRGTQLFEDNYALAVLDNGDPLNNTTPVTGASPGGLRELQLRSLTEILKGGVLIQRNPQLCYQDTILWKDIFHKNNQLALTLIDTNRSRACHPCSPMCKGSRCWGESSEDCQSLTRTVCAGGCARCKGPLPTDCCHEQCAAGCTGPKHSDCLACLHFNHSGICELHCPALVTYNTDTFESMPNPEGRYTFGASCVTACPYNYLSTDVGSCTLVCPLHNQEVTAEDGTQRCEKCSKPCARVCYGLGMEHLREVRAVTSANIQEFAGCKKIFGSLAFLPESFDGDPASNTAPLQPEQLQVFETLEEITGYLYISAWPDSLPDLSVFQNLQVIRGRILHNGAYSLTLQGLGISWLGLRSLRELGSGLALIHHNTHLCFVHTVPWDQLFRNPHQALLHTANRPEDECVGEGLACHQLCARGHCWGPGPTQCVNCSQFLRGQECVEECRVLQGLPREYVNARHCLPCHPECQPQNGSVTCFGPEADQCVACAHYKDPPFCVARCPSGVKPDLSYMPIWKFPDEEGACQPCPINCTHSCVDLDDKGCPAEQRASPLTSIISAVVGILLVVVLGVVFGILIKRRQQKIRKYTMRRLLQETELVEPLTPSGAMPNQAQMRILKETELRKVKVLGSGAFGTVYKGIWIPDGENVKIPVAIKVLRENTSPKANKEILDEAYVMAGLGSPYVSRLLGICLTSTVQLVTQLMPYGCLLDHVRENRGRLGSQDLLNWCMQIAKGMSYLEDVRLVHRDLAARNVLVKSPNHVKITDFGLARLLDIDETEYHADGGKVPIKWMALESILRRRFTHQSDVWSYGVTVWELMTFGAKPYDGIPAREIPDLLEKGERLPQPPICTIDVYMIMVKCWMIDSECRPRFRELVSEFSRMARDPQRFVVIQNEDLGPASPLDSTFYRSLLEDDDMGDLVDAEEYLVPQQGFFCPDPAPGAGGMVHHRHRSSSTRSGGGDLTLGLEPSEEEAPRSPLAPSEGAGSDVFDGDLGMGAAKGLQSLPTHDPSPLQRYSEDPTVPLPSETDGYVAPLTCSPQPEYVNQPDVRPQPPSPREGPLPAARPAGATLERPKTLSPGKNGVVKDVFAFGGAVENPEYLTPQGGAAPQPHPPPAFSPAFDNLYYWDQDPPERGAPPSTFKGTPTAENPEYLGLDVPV
Outline: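 HTRF KinEASE-TK tyrosine-kinase read-out of substrate phosphorylation after a final 1 h at ambient temperature, from the 655/620 nm emission ratio.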

Chain of EGFR WT (P00533 25-1210): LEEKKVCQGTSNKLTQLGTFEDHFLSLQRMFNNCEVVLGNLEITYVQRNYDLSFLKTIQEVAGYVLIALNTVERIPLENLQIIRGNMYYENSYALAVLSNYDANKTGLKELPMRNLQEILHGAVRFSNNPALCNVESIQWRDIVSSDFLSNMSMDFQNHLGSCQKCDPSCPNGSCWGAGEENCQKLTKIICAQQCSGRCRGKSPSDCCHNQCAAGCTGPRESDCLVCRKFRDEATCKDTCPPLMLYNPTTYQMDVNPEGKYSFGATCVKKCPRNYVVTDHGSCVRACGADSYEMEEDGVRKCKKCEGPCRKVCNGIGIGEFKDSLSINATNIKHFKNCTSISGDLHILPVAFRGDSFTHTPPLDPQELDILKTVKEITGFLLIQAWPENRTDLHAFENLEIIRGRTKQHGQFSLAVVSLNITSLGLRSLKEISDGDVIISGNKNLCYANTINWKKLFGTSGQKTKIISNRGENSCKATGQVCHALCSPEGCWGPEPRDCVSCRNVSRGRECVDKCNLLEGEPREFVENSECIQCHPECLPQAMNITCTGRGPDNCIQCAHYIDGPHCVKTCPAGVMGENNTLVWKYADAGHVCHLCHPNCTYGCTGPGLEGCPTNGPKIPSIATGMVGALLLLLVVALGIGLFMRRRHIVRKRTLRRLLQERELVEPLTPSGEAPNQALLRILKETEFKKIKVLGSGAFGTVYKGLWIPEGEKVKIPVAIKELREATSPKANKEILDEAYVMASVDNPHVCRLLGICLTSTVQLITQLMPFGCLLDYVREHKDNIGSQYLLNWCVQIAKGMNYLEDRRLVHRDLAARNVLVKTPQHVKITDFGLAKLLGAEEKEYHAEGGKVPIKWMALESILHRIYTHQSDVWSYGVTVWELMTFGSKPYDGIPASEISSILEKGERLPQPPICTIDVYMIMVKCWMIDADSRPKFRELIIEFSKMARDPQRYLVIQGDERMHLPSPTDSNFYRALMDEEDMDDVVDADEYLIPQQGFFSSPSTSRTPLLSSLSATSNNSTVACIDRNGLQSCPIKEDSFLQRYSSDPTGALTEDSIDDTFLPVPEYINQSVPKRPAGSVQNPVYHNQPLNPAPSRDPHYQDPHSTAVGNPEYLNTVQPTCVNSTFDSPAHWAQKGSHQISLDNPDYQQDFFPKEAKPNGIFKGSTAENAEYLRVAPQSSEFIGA

Compound | IC50 (EGFR WT) [nM] | IC50 (ErbB2 V777L) [nM]
C=CC(=O)N1CC(F)(F)C12CN(c1ncc3ncnc(Nc4ccc(Oc5ccc6c(c5)nnn6C)c(C)c4)c3n1)C2 [Compound 221, 1-(3,3-difluoro-6-(8-((3-methyl-4-((1-methyl-1H-benzo[d][1,2,3]triazol-5-yl)oxy)phenyl)amino)pyrimido[5,4-d]pyrimidin-2-yl)-1,6-diazaspiro[3.3]heptan-1-yl)prop-2-en-1-one] | < 50 | 50 to 100
C=CC(=O)N1CCN(c2ncc3ncnc(Nc4ccc(Oc5ccc6c(c5)nnn6C)cc4F)c3n2)CC1 [Compound 22, 1-(4-(8-((2-fluoro-4-((1-methyl-1H-benzo[d][1,2,3]triazol-5-yl)oxy)phenyl)amino)pyrimido[5,4-d]pyrimidin-2-yl)piperazin-1-yl)prop-2-en-1-one] | 100 to 500 | 100 to 500
C=CC(=O)N1CCN(c2ncc3ncnc(Nc4ccc(Oc5ccc6c(c5)nnn6C)c(C)c4F)c3n2)CC[C@@H]1C [Compound 169, (S)-1-(4-(8-((2-fluoro-3-methyl-4-((1-methyl-1H-benzo[d][1,2,3]triazol-5-yl)oxy)phenyl)amino)pyrimido[5,4-d]pyrimidin-2-y1)-7-methyl-1,4-diazepan-1-yl)prop-2-en-1-one] | 500 to 1000 | 100 to 500
C=CC(=O)N(C)[C@H]1CCCN(c2ncc3ncnc(Nc4ccc(Oc5ccc6c(c5)nnn6C)c(C)c4)c3n2)C1 [Compound 127, (S)-N-methyl-N-(1-(8-((3-methyl-4-((1-methyl-1H-benzo[d][1,2,3]triazol-5-yl)oxy)phenyl)amino)pyrimido[5,4-d]pyrimidin-2-y1)piperidin-3-yl)acrylamide] | 500 to 1000 | 100 to 500
COC/C=C/C(=O)N1CCN(c2ncc3ncnc(Nc4ccc(Oc5ccc6c(c5)nnn6C)c(C)c4)c3n2)CC1 [Compound 56, (E)-4-methoxy-1-(4-(8-((3-methyl-4-((1-methyl-1H-benzo[d][1,2,3]triazol-5-yl)oxy)phenyl)amino)pyrimido [5,4-d]pyrimidin-2-yl)piperazin-1-yl) but-2-en-1-one] | 500 to 1000 | 100 to 500
C=CC(=O)N1CCN(c2ccc3ncnc(Nc4ccc(Oc5ccc6c(c5)nnn6C)c(C)c4F)c3n2)CC1(C)C [Compound 275, 1-(4-(4-((2-fluoro-3-methyl-4-((1-methyl-1H-benzo[d][1,2,3]triazol-5-yl)oxy)phenyl)amino)pyrido[3,2-d]pyrimidin-6-yl)-2,2-dimethylpiperazin-1-yl)prop-2-en-1-one] | 100 to 500 | 100 to 500
C=CC(=O)N1CC2C(C1)N2c1ncc2ncnc(Nc3ccc(Oc4ccc5c(c4)nnn5C)c(C)c3)c2n1 (stereo not shown) [Compound 242, 1-(6-(8-((3-methyl-4-((1-methyl-1H-benzo[d][1,2,3]triazol-5-yl)oxy)phenyl)amino)pyrimido[5,4-d]pyrimidin-2-yl)-3,6-diazabicyclo[3.1.0]hexan-3-yl)prop-2-en-1-one] | 100 to 500 | 500 to 1000
C=CC(=O)N1CCC12CCN(c1ncc3ncnc(Nc4ccc(Oc5ccc6c(c5)nnn6C)c(C)c4)c3n1)C2 (stereo not shown) [Compound 222, 1-(6-(8-((3-methyl-4-((1-methyl-1H-benzo[d][1,2,3]triazol-5-yl)oxy)phenyl)amino)pyrimido[5,4-d]pyrimidin-2-yl)-1,6-diazaspiro[3.4]octan-1-yl)prop-2-en-1-one] | 50 to 100 | 50 to 100
C=CC(=O)N(C)[C@H]1C[C@H](Oc2ncc3ncnc(Nc4ccc(Oc5ccc6c(c5)ncn6C)c(C)c4)c3n2)C1 [Compound 382, N-methyl-N-((1r,3r)-3-((8-((3-methyl-4-((1-methyl-1H-benzo[d]imidazol-5-yl)oxy)phenyl)amino)pyrimido[5,4-d]pyrimidin-2-yl)oxy)cyclobutyl)acrylamide] | ≥ 1000 | 50 to 100

More lines, now with the values ahead:

IC50 (EGFR WT) [nM] | IC50 (ErbB2 V777L) [nM] | Compound
500 to 1000 | 100 to 500 | C=CC(=O)N1CCN(c2ccc3ncnc(Nc4ccc(Oc5ccc6c(c5)ncn6C(F)F)c(C)c4)c3n2)C[C@@H]1C1CC1 [Compound 278, (S)-1-(2-cyclopropyl-4-(4-((4-((1-(difluoromethyl)-1H-benzo[d]imidazol-5-yl)oxy)-3-methylphenyl)amino)pyrido[3,2-d]pyrimidin-6-yl)piperazin-1-yl)prop-2-en-1-one]
500 to 1000 | 100 to 500 | C=CC(=O)N1CCN(c2ccc3ncnc(Nc4ccc(Oc5cc(F)c6c(c5)nnn6C)c(C)c4)c3n2)C[C@@H]1C1CC1 [Compound 290, (S)-1-(2-cyclopropyl-4-(4-((4-((7-fluoro-1-methyl-1H-benzo[d][1,2,3]triazol-5-yl)oxy)-3-methylphenyl)amino)pyrido[3,2-d]pyrimidin-6-yl)piperazin-1-yl)prop-2-en-1-one]
100 to 500 | 50 to 100 | C=CC(=O)N1C2COCC1CC(c1ccc3ncnc(Nc4ccc(Oc5ccc6c(c5)nnn6C)c(C)c4)c3n1)C2 (stereo not shown) [Compound 396, 1-(7-(4-((3-methyl-4-((1-methyl-1H-benzo[d][1,2,3]triazol-5-yl)oxy)phenyl)amino)pyrido[3,2-d]pyrimidin-6-y1)-3-oxa-9-azabicyclo[3.3.1]nonan-9-yl)prop-2-en-1-one trifluoroacetate]
500 to 1000 | 100 to 500 | C=CC(=O)N1CC[C@@H]2CN(c3ncc4ncnc(Nc5ccc(Oc6ccc7c(c6)nnn7C)c(C)c5)c4n3)C[C@@H]21 [Compound 150, 1-((3aR,6aR)-5-(8-((3-methyl-4-((1-methyl-1H-benzo[d][1,2,3]triazol-5-yl)oxy)phenyl)amino)pyrimido[5,4-d]pyrimidin-2-yl)hexahydropyrrolo[3,4-b]pyrrol-1(2H)-yl)prop-2-en-1-one]
100 to 500 | 100 to 500 | C=CC(=O)N1CCN(c2ccc3ncnc(Nc4ccc(Oc5ccc6c(c5)nnn6C)c(C)c4)c3n2)C[C@H]1CC [Compound 294, (R)-1-(2-ethyl-4-(4-((3-methyl-4-((1-methyl-1H-benzo[d][1,2,3]triazol-5-yl)oxy)phenyl)amino)pyrido[3,2-d]pyrimidin-6-yl)piperazin-1-yl)prop-2-en-1-one]
≥ 1000 | 500 to 1000 | C=CC(=O)N1CCC2(CCN(c3ccc4ncnc(Nc5ccc(Oc6ccc7c(c6)nnn7C)c(C)c5)c4n3)C2)C1 (stereo not shown) [Compound 311, 1-(7-(4-((3-methyl-4-((1-methyl-1H-benzo[d][1,2,3]triazol-5-yl)oxy)phenyl)amino)pyrido[3,2-d]pyrimidin-6-yl)-2,7-diazaspiro[4.4]nonan-2-yl)prop-2-en-1-one]
100 to 500 | 100 to 500 | C=CC(=O)NC1CC=C(c2ccc3ncnc(Nc4ccc(Oc5ccc6c(c5)nnn6C)c(C)c4)c3n2)CC1 (stereo not shown) [Compound 412, N-(4-(4-((3-methyl-4-((1-methyl-1H-benzo[d][1,2,3]triazol-5-yl)oxy)phenyl)amino)pyrido[3,2-d]pyrimidin-6-yl)cyclohex-3-en-1-yl)acrylamide]
500 to 1000 | 50 to 100 | C=CC(=O)N1CCCN(c2ccc3ncnc(Nc4ccc(Oc5ccn6ncnc6c5)c(C)c4)c3n2)CC1 [Compound 357, 1-(4-(4-((4-([1,2,4]triazolo[1,5-a]pyridin-7-yloxy)-3-methylphenyl)amino)pyrido[3,2-d]pyrimidin-6-yl)-1,4-diazepan-1-yl)prop-2-en-1-one]

— patent US20250129078A1, “ERBB2 INHIBITORS” (Cogent Biosciences, Inc., priority 2023, published 2025)
